Experimental data from article PMC10895668, “Lead Optimization of the 5-Phenylpyrazolopyrimidinone NPD-2975 toward Compounds with Improved Antitrypanosomal Efficacy” (Journal of Medicinal Chemistry, 2024).
Counter-ions that a name gives are not always drawn. Like-named read-outs stand apart in the source and are kept apart here.

Assays:
T. b. brucei [1] = experiment: Trypanosoma susceptibility assay (resazurin viability); type: cell-based; conditions: for antitrypanosomal activity (in words): T. brucei in vitro; for decrease of antitrypanosomal activity compared with 2: T. b. brucei, versus compound 2; for potency lower compared to 31a: T. brucei, versus compound 31a
Experimental: (§1) The antiparasitic assays were carried out exactly as described in Blaazer et al.([39]) Metabolic stability, pharmacokinetics, acute mouse infection model results were collected as described previously.[21] All animal experiments were conducted in compliance with institutional guidelines and following approval by the Ethical Committee of the University of Antwerp, Belgium [UA-ECD 2014–96]. Female Swiss mice (15–20 g), were purchased from Janvier (Le Genest Saint Isle, France). […] Animals were treated PO b.i.d. for 5 days at 25 and 50 mg/kg 31c. For the SL-RNA qPCR experiments blood was collected sublingually and subjected to erythrocyte lysis before extracting RNA with the QIAamp RNA Blood Mini kit (Qiagen). […] Small pieces of fat, brain, and spleen tissue were excised and immediately transferred to RNA later (Qiagen) and incubated overnight at 4 °C. RNA extraction was performed as instructed in the RNeasy Mini Plus Kit manual (Qiagen). The one-step SensiFAST SYBR Hi-Rox PCR kit (Bioline USA Inc., via Gentaur Belgium BVBA, Kampenhout, Belgium) was used for the PCR with the following forward and reverse primers, respectively 5′-[…]-3′ and 5′-[…]-3′. An initial activation step of 10 min at 45 °C and 10 min at 95 °C was used, followed by the amplification step for 40 cycles (15 s at 95 °C, 15 s 50 °C and 15 s at 60 °C). At last, the melting curves were generated with an increment of 0.3 °C (15 s at 95 °C 1 min at 45 °C and 15 s at 95 °C). The PCR was run on the Step One Plus real-time PCR system (Applied Biosystems, California, USA). An additional qPCR was performed with the mouse housekeeping gene Eef2 to confirm successful RNA extraction.
In vitro experiments were carried out with the bloodstream form of the T. b. brucei Squib strain (suramin-sensitive). Parasites were routinely cultured in T25 culture flasks containing 10 mL of HMI-9 medium (Invitrogen) supplemented with 10% heat-inactivated fetal bovine serum (Life Technologies) and 2.5 μg/mL Geneticin (Life Technologies). MRC-5SV2 cells were cultured in MEM + Earl’s salts-medium, supplemented with 2 mM L-glutamine, 16.5 mM NaHCO3, and 5% inactivated fetal calf serum. All cultures and assays were conducted at 37 °C under an atmosphere of 5% CO2.
Parasites were counted in a KOVA counting chamber and diluted to 1.5 × 10^4 parasites/well of a 96-well plate (200 μL total volume), upon which the prediluted test compounds were added. Drug exposure covered a 72 h period without renewal of the culture medium. After 3 days of incubation, parasite growth was assessed fluorimetrically after addition of 50 μL of resazurin per well. After 6 h (T. b. rhodesiense) or 24 h (T. b. brucei) at 37 °C, fluorescence is measured (λex 550 nm, λem 590 nm). Parasite viability was assessed using the resazurin viability assay, and drug activity was calculated as percentage viability reduction compared to nontreated controls.

MRC-5 cells [2] = experiment: MRC-5SV2 cytotoxicity assay; type: cell-based; conditions: Homo sapiens, MRC5, 72 h, read-out: pIC50 MRC-5 (converted)
Experimental: The synthesized analogues were tested against T. b. brucei, and inhibition of MRC-5 (human lung fibroblasts MRC-5SV40) cell proliferation was included as cytotoxicity control. […] Analogue 17 with an amino group instead of the carbonyl group was prepared to improve solubility for further modification. […] In vitro experiments were carried out with the bloodstream form of the T. b. brucei Squib strain (suramin-sensitive). […] All cultures and assays were conducted at 37 °C under an atmosphere of 5% CO2. […] Cell growth is compared to untreated-control wells (100% cell growth) and medium-control wells (0% cell growth). […] After 4 h at 37 °C, fluorescence is measured (λex 550 nm, λem 590 nm). The results are expressed as % reduction in cell growth/viability compared to control wells and an IC50 and an IC90 (50 and 90% inhibitory concentrations) are determined.

T. b. brucei [3] = conditions: 10 mg/kg IP s.i.d. for 5 days, positive control, n = 3
Experimental: as §1
Mice were allocated to groups of three and were infected by IP injection of 10^4T. brucei Squib 427 trypomastigotes. […] Suramin was included as a reference for T. brucei and injected IP s.i.d. for 5 days at 10 mg/kg. A PEG400 vehicle control group was also included. […] The first treatment was given 30 min prior to the artificial infection. Drug efficacy was evaluated by microscopic determination of the parasitemia in a blood drop collected from the tail vein at several time points until 63 days postinfection (dpi). […] An SL-RNA qPCR assay was performed in all surviving animals to confirm parasitological cure. For the SL-RNA qPCR, peripheral blood was subjected to erythrocyte lysis before extracting RNA with the QIAamp RNA Blood Mini kit (Qiagen). […] Small pieces of fat, brain, and spleen tissues were excised and immediately transferred to RNA later (Qiagen) and incubated overnight at 4 °C. RNA extraction was performed as instructed in the RNeasy Mini Plus Kit manual (Qiagen). […]

MRC-5 cells [4] = conditions: Figure 1; previously reported series ref 21; cited from earlier work
[5] = Trypanosoma brucei, 72 h, T. b. brucei Squib bloodstream form, 72 h exposure, mean ± SD, n ≥ 2, read-out: pIC50 T. brucei (converted)
[6] = cytotoxicity, 3 days incubation, mean ± SD, n ≥ 2
[7] = T. b. brucei Squib bloodstream form, 72 h exposure, mean ± SD, n ≥ 2

| Compound | IC50 (T. b. brucei [1]; [5]) | IC50 (MRC-5 cells [2]; [6]) | other results |
| --- | --- | --- | --- |
| COCCn1nc(C(C)C)c2nc(-c3ccc(F)cc3)[nH]c(=O)c21 [21d, 5-(4-Fluorophenyl)-3-isopropyl-1-(2-methoxyethyl)-1,6-dihydro-7H-pyrazolo[4,3-d]pyrimidin-7-one] | > 63100 nM | > 63.1 µM | antitrypanosomal activity (in words) (T. b. brucei [1]): no antitrypanosomal activity at all |
| CC(C)c1[nH]nc2c(=O)n(C)c(-c3ccc(F)cc3)nc12 [compound 7, 5-(4-Fluorophenyl)-3-isopropyl-6-methyl-2,6-dihydro-7H-pyrazolo[4,3-d]pyrimidin-7-one] | > 10000 nM | > 63.1 µM | decrease of antitrypanosomal activity compared with 2 (T. b. brucei [1]): > 100 fold |
| CCCn1nc(C(C)C)c2nc(-c3ccc(F)cc3)[nH]c(=O)c21 [21b, 5-(4-Fluorophenyl)-3-isopropyl-1-propyl-1,6-dihydro-7H-pyrazolo[4,3-d]pyrimidin-7-one] | 158 nM | > 63.1 µM |  |
| CC(C)c1nn(CCO)c2c(=O)[nH]c(-c3ccc(F)cc3)nc12 [compound 22, 5-(4-Fluorophenyl)-1-(2-hydroxyethyl)-3-isopropyl-1,6-dihydro-7H-pyrazolo[4,3-d]pyrimidin-7-one] | 631 nM | > 63.1 µM | IC50 (T. b. brucei [1]; Trypanosoma brucei, read-out: IC50 against T. brucei): 800 nM |
| CC(C)c1c2nc(-c3ccc(F)cc3)[nH]c(=O)c2nn1C [compound 15, 5-(4-Fluorophenyl)-3-isopropyl-2-methyl-2,6-dihydro-7H-pyrazolo[4,3-d]pyrimidin-7-one] | 1580 nM | > 63.1 µM | decrease of antitrypanosomal activity compared with 2 (T. b. brucei [1]): 20 fold |
| CCc1n[nH]c2c(=O)[nH]c(-c3ccc(F)cc3)nc12 [31d, 3-Ethyl-5-(4-fluorophenyl)-1,6-dihydro-7H-pyrazolo[4,3-d]pyrimidin-7-one] | 398 nM | > 63.1 µM |  |
| O=c1[nH]c(-c2ccc(F)cc2)nc2c(-c3ccccc3)n[nH]c12 [compound 35, 5-(4-Fluorophenyl)-3-phenyl-1,6-dihydro-7H-pyrazolo[4,3-d]pyrimidin-7-one] | < 100 nM | > 63.1 µM | pIC50 T. brucei (T. b. brucei [1]; [7]): 7.3 ± 0.1; potency lower compared to 31a (T. b. brucei [1]): 4 fold |
| O=c1[nH]c(-c2ccc(F)cc2)nc2c(C3CCCCC3)n[nH]c12 [31b, 3-Cyclohexyl-5-(4-fluorophenyl)-1,6-dihydro-7H-pyrazolo[4,3-d]pyrimidin-7-one] |  | > 63.1 µM | potency lower compared to 31a (T. b. brucei [1]): 4 fold |
| CC(C)c1nn(C(C)C)c2c(=O)[nH]c(-c3ccc(F)cc3)nc12 [21c, 5-(4-Fluorophenyl)-1,3-diisopropyl-1,6-dihydro-7H-pyrazolo[4,3-d]pyrimidin-7-one] | 6310 nM | > 63.1 µM | decrease of antitrypanosomal activity compared with 2 (T. b. brucei [1]): ~100 fold |
| CC(C)c1n[nH]c2c(=N)[nH]c(-c3ccc(F)cc3)nc12 [compound 17, 5-(4-Fluorophenyl)-3-isopropyl-1,6-dihydro-7H-pyrazolo[4,3-d]pyrimidin-7-imine] | > 10000 nM | 25.1 µM | decrease of antitrypanosomal activity compared with 2 (T. b. brucei [1]): > 100 fold |
| CC(C)c1nn(C)c2c(=O)[nH]c(-c3ccc(F)cc3)nc12 [compound 11, 5-(4-Fluorophenyl)-3-isopropyl-1-methyl-1,6-dihydro-7H-pyrazolo[4,3-d]pyrimidin-7-one] | < 100 nM | > 63.1 µM | pIC50 T. brucei (T. b. brucei [1]; [7]): 7.1 ± 0.1 |
| 5-(4-Fluorophenyl)-3-isopropyl-1-(4-methoxyphenethyl)-1,6-dihydro-7H-pyrazolo[4,3-d]pyrimidin-7-one [21e] |  |  | IC50 (T. b. brucei [1]; read-out: IC50 against T. brucei): 3200 nM |
| CCn1nc(C(C)C)c2nc(-c3ccc(F)cc3)[nH]c(=O)c21 [21a, 1-Ethyl-5-(4-fluorophenyl)-3-isopropyl-1,6-dihydro-7H-pyrazolo[4,3-d]pyrimidin-7-one] | 251 nM | > 63.1 µM |  |
| Cc1ccc(C(=O)Nc2ccc(S(=O)(=O)O)c3cc(S(=O)(=O)O)cc(S(=O)(=O)O)c23)cc1NC(=O)c1cccc(NC(=O)Nc2cccc(C(=O)Nc3cc(C(=O)Nc4ccc(S(=O)(=O)O)c5cc(S(=O)(=O)O)cc(S(=O)(=O)O)c45)ccc3C)c2)c1 [suramin, reference compound] |  |  | survival (T. b. brucei [3]): survived throughout the 60 days postinfection follow-up period without relapse |
| Cc1n[nH]c2c(=O)[nH]c(-c3ccc(F)cc3)nc12 [31e, 5-(4-Fluorophenyl)-3-methyl-1,6-dihydro-7H-pyrazolo[4,3-d]pyrimidin-7-one] | 25100 nM | > 63.1 µM |  |
| CC(C)c1n[nH]c2c(=O)[nH]c(Cc3ccccc3)nc12 [compound 1, reference compound] |  |  | MRC-5 pIC50 (MRC-5 cells [4]): < 4.2 |
| CC(C)c1nn(CCC(N)=O)c2c(=O)[nH]c(-c3ccc(F)cc3)nc12 [21f, 3-(5-(4-Fluorophenyl)-3-isopropyl-7-oxo-6,7-dihydro-1H-pyrazolo[4,3-d]pyrimidin-1-yl)propanamide] | > 63100 nM | > 63.1 µM | antitrypanosomal activity (in words) (T. b. brucei [1]): no antitrypanosomal activity |
| O=c1[nH]c(-c2ccc(F)cc2)nc2cn[nH]c12 [31f, 5-(4-Fluorophenyl)-1,6-dihydro-7H-pyrazolo[4,3-d]pyrimidin-7-one Formate] |  |  | IC50 (T. b. brucei [1]; Trypanosoma brucei, 72 h, read-out: pIC50 T. brucei (converted)): > 63100 nM; IC50 (MRC-5 cells [2]): > 63.1 µM |
